# How the values were obtained:
# phospho-STAT3 (pSTAT3) = test: Western blot of phospho-STAT3 in gastrocnemius muscle, Study 1; assay type: in vivo, mouse; conditions: C-26 tumor-bearing animals
# Description: FIG. 4A is a table showing multiplex analysis of diverse serum cytokines in terminal samples from Study 2. Presented cytokines are limited to those showing significant differences from tumor-bearing vehicle-treated controls. G-CSF: granulocyte colony-stimulating factor, GM-CSF: granulocyte macrophage colony-stimulating factor, IL-6: interleukin-6, IL-17: interleukin-17, IP-10: interferon gamma-induced protein 10, KC: chemokine (C-X-C motif) ligand 1, LIF: leukemia inhibitory factor, M-CSF: macrophage colony-stimulating factor. FIG. 4B is a bar graph showin ELISA analysis of serum IL-6 levels in terminal samples from Study 2. ND, not detected. FIG. 4C is a plot showing individual animal serum IL-6 values as determined in A plotted against tumor-corrected terminal bodyweights from Study 2 (Pearson's Correlation). […]
# Western blots from all studies were performed on gastrocnemius muscle from representative animals lysed by Nonidet P-40 isotonic lysis buffer [50 mM Tris-HCl, pH 7.5, 120 mM NaCl, 1% (v/v) Nonidet P-40, 1 mM EDTA, 50 mM NaF, 40 mM glycerophosphate, and […] each of protease inhibitors (aprotinin, pepstatin, and leupeptin)]. Equivalent amounts of protein from each sample, as determined by Bradford assay (Bio-Rad), was resolved by SDS-PAGE and then transferred (semi-dry) onto immobilon-nitrocellulose membranes (Millipore, Billerica, Mass.). […]
# [1] = tested on: atrogin-1 (FBXO32), MuRF-1 (TRIM63), CEBPO (CEBPD); test: qRT-PCR of atrophy-related genes in gastrocnemius muscle, Study 1; assay type: in vivo, mouse; conditions: relative to tumor-bearing controls, GTx-024 15 mg/kg, AR-42 10 mg/kg
# Method: FIGS. 3A-B show gene expression of multiple cachexia-associated markers in gastrocnemius muscles of individual animals from Study 1 (n=5-6 per group). Expression was determined by qRT-PCR (Geometric Mean±Geometric STD). FIG. 3A contains bar graphs showing genes associated with muscle atrophy. FIG. 3B is a bar graph showing androgen receptor (AR) mRNA expression. […] Statistics all panels: *p<0.05, ***p<0.001, ****p<0.0001 versus tumor-bearing vehicle-treated controls, Dunnett's multiple comparison test. CEBPO, n=4, insufficient sample to analyze all tumor-bearing GTx-024-treated animals.
# qRT-PCR: To generate muscle tissue RNA, 15 mg of gastrocnemius muscle tissue was lysed in 10 volumes of lysis buffer per tissue mass in prefilled 2.0 ml tubes with 3.0 mm zirconium beads (MIDSCl; St. Louis, Mo.). Tubes were loaded into Beadblaster™ 24 (MIDSCl; St. Louis, Mo.) and centrifuged for 5 cycles of 5 seconds with a 30 second pause between cycles. Lysate was collected and RNA was isolated using the mirVana™ miRNA Isolation Kit, with phenol (ThermoFisher; Waltham, Mass.). Samples were treated with DNA-free DNA Removal Kit to eliminate any DNA contamination (Invitrogen, Carlsbad, Calif.). […] As transformed expression data are not normally distributed, statistical differences between treatment groups were determined by one-way ANOVA followed by Dunnett's test on raw delta Ct values.
Compound,pSTAT3 abundance in gastrocnemius muscle (phospho-STAT3 (pSTAT3)),"atrogin-1, MuRF-1, or CEBPO expression [1]"
"CC(C)[C@H](C(=O)Nc1ccc(C(=O)NO)cc1)c1ccccc1 [AR-42, (S)—N-hydroxy-4-(3-methyl-2-phenylbutanamido)benzamide]",reduced pSTAT3 but not equally in all animals,significantly reduced the expression of each atrogene
"C[C@](O)(COc1ccc(C#N)cc1)C(=O)Nc1ccc(C#N)c(C(F)(F)F)c1 [GTx-024, (2S)-3-(4-cyanophenoxy)-N-(4-cyano-3-(trifluoromethyl)phenyl)-2-hydroxy-2-methylpropanamide]",no apparent effect on pSTAT3,no significant impact
